In PubChem BioAssay AID1934 (Broad Institute, 2009):
Records with an inconclusive call do not appear.

Test system: DRD oncogenic fibroblast viability, ATP luminescence
Assay: DRD fibroblast viability loss – cell-based, non-viral oncogenic, luminescence, dose response (AID 1934)

Which EC50 does the source give for `C=C(C=O)CC1CC(O)[C@]2(C)OC3CC4OC5C[C@]6(C)O[C@]7(C)CCC8OC9C[C@]%10(C)OC%11C(C)=CC(=O)OC%11CC%10OC9C[C@@H](C)C8OC7CC6O[C@]5(C)CC5OC5C4OC3CC2O1` (stereo partly specified) here?
Its EC50 is 824 nM.
